Reference: patent US9242929B2, “Compounds as diacylglycerol acyltransferase inhibitors” (GlaxoSmithKline Intellectual Property (No.2) Limited, priority 2011, dated 2016)

Molecular target: T1, Human DGAT1 (Homo sapiens, UniProt O75907)
T1 construct: made in house; host or cells: Sf9 insect cells (baculovirus), microsomes
T1 sequence (O75907 1-488): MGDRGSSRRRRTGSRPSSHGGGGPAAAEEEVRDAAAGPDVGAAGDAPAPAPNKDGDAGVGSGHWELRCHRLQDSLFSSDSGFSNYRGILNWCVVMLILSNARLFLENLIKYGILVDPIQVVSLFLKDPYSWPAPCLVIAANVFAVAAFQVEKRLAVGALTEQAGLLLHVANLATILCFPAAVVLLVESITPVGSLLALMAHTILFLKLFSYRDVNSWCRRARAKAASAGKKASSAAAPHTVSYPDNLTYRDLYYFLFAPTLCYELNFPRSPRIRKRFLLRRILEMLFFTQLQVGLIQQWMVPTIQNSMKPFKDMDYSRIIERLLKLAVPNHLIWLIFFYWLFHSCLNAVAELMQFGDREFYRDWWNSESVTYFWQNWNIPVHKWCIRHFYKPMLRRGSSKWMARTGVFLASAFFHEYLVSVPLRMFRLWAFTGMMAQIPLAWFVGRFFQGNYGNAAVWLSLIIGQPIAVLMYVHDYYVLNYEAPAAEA
Experiment: human DGAT1 fluorescence (CPM) assay, inhibition of CoA product formation
Type: biochemical
Conditions: human DGAT1 fluorescene (CPM) assay; microsomes from Sf9 insect cells; read-out: hDGAT IC50
Protocol: Human DGAT1 was expressed in Sf9 insect cells using a baculovirus expression system. Microsomes were prepared and used as enzyme for in vitro inhibition testing in either of two formats measuring production of coenzyme A or tridecanoylglycerol product, respectively. All steps were performed at 21-23° C. All data for DGAT1 inhibition by test compounds were collected under conditions where product formation was linear with reaction time.
An equal volume (10 uL) of 3× enzyme in buffer was added and the components incubated for 30 minutes pre-reaction incubation to allow enzyme and test compounds to attain binding equilibrium. […] Some assays were performed with inclusion of didecanoylglycerol in the pre-reaction incubation of test compound and enzyme. DGAT reactions (30 uL) were initiated upon addition of 10 uL of 3× substrate solution. Final reaction conditions consisted of 20 mM HEPES pH 7.5, 2 mM MgCl2, 1 mM CHAPS, 50 uM didecanoylglycerol, 3 uM decanoyl-CoA, 1 ug/mL microsomal protein, and 1% DMSO. Following a 60 minute reaction incubation, reactions were stopped and CoA product derivatized with 30 uL of buffer containing 10 uM {4-[4-(4-amino-7,7-dimethyl-7H-pyrimido[4,5-b][1,4]oxazin-6-yl)phenyl]cyclohexyl}acetic acid and 50 uM 7-diethylamino-3-(4′-maleimidylphenyl)-4-methylcoumarin (CPM). […] IC50s were fitted using GraphPad Prism to a sigmoidal dose response.

## CC[C@@]1(CC(=O)O)CCc2cc(-c3ccc(NC(=O)Nc4cccc(C(F)(F)F)c4)cc3)ccc2[C@@H]1O (relative stereo) [Example 173, rel-2-[(1R,2S)-2-ethyl-1-hydroxy-6-[4-({[3-(trifluoromethyl)phenyl]carbamoyl}amino)phenyl]-1,2,3,4-tetrahydronaphthalen-2-yl]acetic acid]
  IC50: 10.8 nM

## CC1(CC(=O)O)CCc2cc(-c3ccc(NC(=O)Nc4cccc(Cl)c4)cc3Cl)ccc2C1=O (single isomer, unassigned) [Example 212, 2-(6-(2-chloro-4-(3-(3-chlorophenyl)ureido)phenyl)-2-methyl-1-oxo-1,2,3,4-tetrahydronaphthalen-2-yl)acetic acid]
  IC50: 32.8 nM

## CCC1(CC(=O)O)CCc2cc(-c3ccc(NC(=O)Nc4cccc(Cl)c4)cc3Cl)ccc2C1=O (single isomer, unassigned) [Example 213, 2-(6-(2-Chloro-4-(3-(3-chlorophenyl)ureido)phenyl)-2-ethyl-1-oxo-1,2,3,4-tetrahydronaphthalen-2-yl)acetic acid]
  IC50: 5.9 nM

## O=C(O)CC1(CC(F)(F)F)CCc2cc(-c3ccc(NC(=O)Nc4cccc(Cl)c4)cc3)ccc2C1=O (single isomer, unassigned) [Example 214, 2-(6-(4-(3-(3-Chlorophenyl)ureido)phenyl)-1-oxo-2-(2,2,2-trifluoroethyl)-1,2,3,4-tetrahydronaphthalen-2-yl)acetic acid]
  IC50: 0.6 nM

## O=C(O)CC1(CC(F)(F)F)CCc2cc(-c3cnc(NC(=O)NC4CCCCC4)cn3)ccc2C1=O (single isomer, unassigned) [Example 216, 2-(6-(5-(3-cyclohexylureido)pyrazin-2-yl)-1-oxo-2-(2,2,2-trifluoroethyl)-1,2,3,4-tetrahydronaphthalen-2-yl)acetic acid]
  IC50: 2.7 nM

## COC1(CC(=O)O)CCc2cc(-c3ccc(NC(=O)Nc4cccc(C(F)(F)F)c4)cc3)ccc2C1=O (single isomer, unassigned) [Example 228]
  IC50: 6.9 nM

## O=C(O)CN1CCc2cc(-c3ccc(NC(=O)Nc4cccc(C(F)(F)F)c4)cc3)ccc2C1=O [Example 1, 2-{1-oxo-6-[4-({[3-(trifluoromethyl)phenyl]carbamoyl}amino)phenyl]-1,2,3,4-tetrahydroisoquinolin-2-yl}acetic acid]
  IC50: 1880 nM

## O=C(O)CC1CCc2cc(-c3ccc(NC(=O)Nc4ccc(F)c(C(F)(F)F)c4)cc3)ccc2C1 (centres unmarked) [Example 20]
  IC50: 586 nM

## O=C(O)CC1(O)CCc2cc(-c3ccc(NC(=O)Nc4cccc(C(F)(F)F)c4)cc3)ccc2C1 (centres unmarked) [Example 40, 2-{2-hydroxy-6-[4-({[3-(trifluoromethyl)phenyl]carbamoyl}amino)phenyl]-1,2,3,4-tetrahydronaphthalen-2-yl}acetic acid]
  IC50: 357 nM

## CCC1(CC(=O)O)Cc2cc(-c3ccc(NC(=O)Nc4cccc(C(F)(F)F)c4)cc3)ccc2C1=O (centres unmarked) [Example 42, 2-{2-ethyl-1-oxo-5-[4-({[3-(trifluoromethyl)phenyl]carbamoyl}amino)phenyl]-2,3-dihydro-1H-inden-2-yl}acetic acid]
  IC50: 60 nM

## O=C(O)CC1CCc2cc(-c3ccc(NC(=O)Nc4cccc(C(F)(F)F)c4)cc3)ccc2C1=O (centres unmarked) [Example 47, 2-{1-oxo-6-[4-({[3-(trifluoromethyl)phenyl]carbamoyl}amino)phenyl]-1,2,3,4-tetrahydronaphthalen-2-yl}acetic acid]
  IC50: 181 nM

## O=C(O)CC1CCc2cc(-c3ccc(NC(=O)Nc4cccc(C(F)(F)F)c4)cc3)ccc2C1O (centres unmarked) [Example 68, 2-{1-hydroxy-6-[4-({[3-(trifluoromethyl)phenyl]carbamoyl}amino)phenyl]-1,2,3,4-tetrahydronaphthalen-2-yl}acetic acid]
  IC50: 503 nM

## O=C(O)CCC1CCc2cc(-c3ccc(NC(=O)Nc4cccc(C(F)(F)F)c4)cc3)ccc2C1=O (centres unmarked) [Example 69, 3-{1-oxo-6-[4-({[3-(trifluoromethyl)phenyl]carbamoyl}amino)phenyl]-1,2,3,4-tetrahydronaphthalen-2-yl}propanoic acid]
  IC50: 114 nM

## CC(C)(C(=O)O)C1CCc2cc(-c3ccc(NC(=O)Nc4cccc(C(F)(F)F)c4)cc3)ccc2C1=O (centres unmarked) [Example 76, 2-methyl-2-{1-oxo-6-[4-({[3-(trifluoromethyl)phenyl]carbamoyl}amino)phenyl]-1,2,3,4-tetrahydronaphthalen-2-yl}propanoic acid]
  IC50: 112 nM

## CC1(CC(=O)O)CCc2cc(-c3ccc(NC(=O)Nc4cccc(Cl)c4)c(F)c3)ccc2C1=O (centres unmarked) [Example 90]
  IC50: 12 nM

## CC1(CC(=O)O)CCc2cc(-c3ccc(NC(=O)Nc4cccc(C(F)(F)F)c4)cn3)ccc2C1=O (centres unmarked) [Example 109]
  IC50: 14.2 nM

## CCC1(CC(=O)O)CCc2cc(-c3ccc(NC(=O)Nc4cccc(Cl)c4)cc3Cl)ccc2C1=O (centres unmarked) [Example 139]
  IC50: 10.8 nM

## CCC1(CC(=O)O)CCc2cc(-c3ccc(NC(=O)Nc4ccccc4)cc3Cl)ccc2C1=O (centres unmarked) [Example 140]
  IC50: 31.8 nM

## CCC1(CC(=O)O)CCc2cc(-c3ccc(NC(=O)Nc4ccccc4)c(F)c3)ccc2C1=O (centres unmarked) [Example 141]
  IC50: 9.4 nM

## CCC1(CC(=O)O)CCc2cc(-c3ccc(NC(=O)Nc4cccc(C(F)(F)F)c4)c(F)c3)ccc2C1=O (centres unmarked) [Example 143]
  IC50: 11.2 nM

## CCC1(CC(=O)O)CCc2cc(-c3ccc(NC(=O)Nc4cccc(Cl)c4)c(F)c3)ccc2C1=O (centres unmarked) [Example 144]
  IC50: 5.8 nM

## CCC1(CC(=O)O)CCc2cc(-c3cnc(NC(=O)Nc4ccccc4)cn3)ccc2C1=O (centres unmarked) [Example 154]
  IC50: 47.8 nM

## CC[C@@]1(CC(=O)O)CCc2cc(-c3ccc(NC(=O)Nc4cccc(Cl)c4)cn3)ccc2C1=O [Example 164]
  IC50: 4.5 nM

## O=C(O)CC1(F)CCc2cc(-c3ccc(NC(=O)Nc4cccc(C(F)(F)F)c4)cc3)ccc2C1=O (centres unmarked) [Example 182, 2-{2-fluoro-1-oxo-6-[4-({[3-(trifluoromethyl)phenyl]carbamoyl}amino)phenyl]-1,2,3,4-tetrahydronaphthalen-2-yl}acetic acid]
  IC50: 48 nM

## O=C(O)CC1(O)CCc2cc(-c3ccc(NC(=O)Nc4cccc(C(F)(F)F)c4)cc3)ccc2C1=O (centres unmarked) [Example 185, 2-{2-hydroxy-1-oxo-6-[4-({[3-(trifluoromethyl)phenyl]carbamoyl}amino)phenyl]-1,2,3,4-tetrahydronaphthalen-2-yl}acetic acid]
  IC50: 32 nM

## COC1(CC(=O)O)CCc2cc(-c3ccc(NC(=O)Nc4ccccc4)cc3)ccc2C1=O (centres unmarked) [Example 190, 2-(2-methoxy-1-oxo-6-{4-[(phenylcarbamoyl)amino]phenyl}-1,2,3,4-tetrahydronaphthalen-2-yl)acetic acid]
  IC50: 67.6 nM

## COC1(CC(=O)O)CCc2cc(-c3ccc(NC(=O)Nc4cccc(Cl)c4)cc3)ccc2C1=O (centres unmarked) [Example 192]
  IC50: 10.6 nM

## COCC1(CC(=O)O)CCc2cc(-c3ccc(NC(=O)Nc4cccc(C(F)(F)F)c4)cc3)ccc2C1=O (centres unmarked) [Example 197, 2-[2-(methoxymethyl)-1-oxo-6-[4-({[3-(trifluoromethyl)phenyl]carbamoyl}amino)phenyl]-1,2,3,4-tetrahydronaphthalen-2-yl]acetic acid]
  IC50: 2.3 nM

## O=C(O)CC1(CO)CCc2cc(-c3ccc(NC(=O)Nc4cccc(Cl)c4)c(F)c3)ccc2C1=O (centres unmarked) [Example 198, 2-(6-(4-(3-(3-Chlorophenyl)ureido)-3-fluorophenyl)-2-(hydroxymethyl)-1-oxo-1,2,3,4-tetrahydronaphthalen-2-yl)acetic acid]
  IC50: 55 nM
